In PMC2248166, “Quantitative peptide binding motifs for 19 human and mouse MHC class I molecules derived using positional scanning combinatorial peptide libraries” (Immunome Research, 2008):
Where a SMILES comes first, the peptide text is derived from it.

biological target: HLA A*3001 (Homo sapiens, UniProt P04439, D140H/D185E/E176W/F33S/G80R/H175R/K168Q/R138E/R41S); assay: biochemical; type: binding
Sequence (P04439 25-365 limits assumed, stated change not applied): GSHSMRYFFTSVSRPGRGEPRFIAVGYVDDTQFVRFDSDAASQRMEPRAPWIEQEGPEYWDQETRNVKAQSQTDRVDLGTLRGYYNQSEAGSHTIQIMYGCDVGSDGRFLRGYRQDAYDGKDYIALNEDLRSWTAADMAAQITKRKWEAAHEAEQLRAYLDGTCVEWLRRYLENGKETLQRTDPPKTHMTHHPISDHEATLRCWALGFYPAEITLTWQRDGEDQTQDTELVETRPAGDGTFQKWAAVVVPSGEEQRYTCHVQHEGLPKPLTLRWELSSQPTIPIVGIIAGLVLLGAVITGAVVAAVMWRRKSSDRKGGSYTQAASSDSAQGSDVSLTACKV

Row | Structure (SMILES) | IC50 [nM]
1 | CC(C)C[C@H](NC(=O)[C@H](Cc1ccccc1)NC(=O)[C@@H](NC(=O)[C@H](Cc1ccc(O)cc1)NC(=O)[C@H](CCCNC(=N)N)NC(=O)[C@@H](NC(=O)[C@@H](N)CC(N)=O)C(C)C)C(C)C)C(=O)N[C@@H](Cc1ccc(O)cc1)C(=O)N[C@@H](CCCCN)C(=O)O [3102.0198] (H-NVRYVFLYK-OH) | 9.9
2 | CC[C@H](C)[C@H](NC(=O)[C@H](Cc1ccc(O)cc1)NC(=O)[C@H](CO)NC(=O)[C@H](CC(C)C)NC(=O)[C@H](Cc1ccccc1)NC(=O)[C@H](Cc1c[nH]cn1)NC(=O)[C@H](CCCNC(=N)N)NC(=O)[C@@H](NC(=O)[C@@H](N)CCCNC(=N)N)[C@@H](C)O)C(=O)O [3102.0111] (H-RTRHFLSYI-OH) | 0.24
3 | CC[C@H](C)[C@H](NC(=O)[C@@H](N)CCCNC(=N)N)C(=O)N[C@@H](CCCNC(=N)N)C(=O)N[C@@H](Cc1ccccc1)C(=O)N[C@@H](Cc1ccccc1)C(=O)N[C@@H](Cc1ccc(O)cc1)C(=O)N[C@@H](CCCNC(=N)N)C(=O)N[C@@H](CCCCN)C(=O)N[C@@H](CCCCN)C(=O)O [3102.0083] (H-RIRFFYRKK-OH) | 0.17
4 | CSCC[C@H](N)C(=O)N[C@@H](CO)C(=O)N[C@@H](CCCNC(=N)N)C(=O)N[C@@H](CCCNC(=N)N)C(=O)N[C@@H](Cc1ccc(O)cc1)C(=O)N[C@@H](CO)C(=O)N[C@@H](CCCNC(=N)N)C(=O)N[C@@H](CCC(=O)O)C(=O)N[C@@H](CCCCN)C(=O)O [3102.0203] (H-MSRRYSREK-OH) | 1.3
5 | CC[C@H](C)[C@H](NC(=O)[C@H](CC(N)=O)NC(=O)[C@H](CO)NC(=O)[C@H](CCSC)NC(=O)[C@H](CC(C)C)NC(=O)[C@H](CCCCN)NC(=O)[C@@H](NC(=O)[C@@H](N)CCCNC(=N)N)[C@@H](C)O)C(=O)N[C@@H](CCCCN)C(=O)O [3102.0253] (H-RTKLMSNIK-OH) | 0.38
6 | CC[C@H](C)[C@H](NC(=O)[C@H](C)N)C(=O)N[C@@H](CCCNC(=N)N)C(=O)N[C@@H](C)C(=O)NCC(=O)N[C@@H](Cc1ccc(O)cc1)C(=O)N[C@@H](CO)C(=O)N[C@H](C(=O)N[C@H](C(=O)O)C(C)C)[C@@H](C)CC [3102.0160] (H-AIRAGYSIV-OH) | 1.4
7 | CC(C)C[C@H](NC(=O)[C@H](CC(N)=O)NC(=O)[C@H](CC(C)C)NC(=O)[C@H](Cc1c[nH]c2ccccc12)NC(=O)[C@H](CO)NC(=O)[C@H](CC(N)=O)NC(=O)[C@H](CCCCN)NC(=O)[C@H](C)NC(=O)[C@@H](N)CO)C(=O)O [3102.0164] (H-SAKNSWLNL-OH) | 0.57
8 | CC(C)[C@H](NC(=O)[C@@H](N)Cc1c[nH]cn1)C(=O)N[C@@H](Cc1ccc(O)cc1)C(=O)N[C@@H](CC(=O)O)C(=O)N[C@@H](Cc1ccccc1)C(=O)N[C@@H](CCC(=O)O)C(=O)N1CCC[C@H]1C(=O)N[C@@H](Cc1ccc(O)cc1)C(=O)N[C@@H](Cc1ccc(O)cc1)C(=O)O [3102.0068] (H-HVYDFEPYY-OH) | 27
9 | CC[C@H](C)[C@H](NC(=O)[C@H](C)NC(=O)[C@H](CO)NC(=O)[C@@H](NC(=O)[C@H](CO)NC(=O)[C@@H](NC(=O)[C@@H](N)CCCNC(=N)N)C(C)C)C(C)C)C(=O)N[C@@H](CC(C)C)C(=O)N[C@@H](CC(C)C)C(=O)O [3102.0061] (H-RVSVSAILL-OH) | 15
10 | CC[C@H](C)[C@H](NC(=O)[C@H](Cc1ccccc1)NC(=O)[C@H](Cc1ccccc1)NC(=O)[C@H](CO)NC(=O)[C@H](CC(N)=O)NC(=O)[C@H](CO)NC(=O)[C@H](CC(C)C)NC(=O)[C@@H](N)Cc1c[nH]cn1)C(=O)N[C@@H](CCCCN)C(=O)O [3102.0086] (H-HLSNSFFIK-OH) | 17
11 | CC[C@H](C)[C@H](NC(=O)[C@H](CCSC)NC(=O)[C@H](CCSC)NC(=O)[C@@H](NC(=O)[C@@H](N)CCCCN)[C@@H](C)O)C(=O)N[C@@H](CC(N)=O)C(=O)N1CCC[C@H]1C(=O)N[C@@H](Cc1ccccc1)C(=O)N[C@@H](CCSC)C(=O)O [3102.0254] (H-KTMMINPFM-OH) | 0.36
12 | CC[C@H](C)[C@H](NC(=O)[C@H](CC(N)=O)NC(=O)CNC(=O)[C@H](CC(N)=O)NC(=O)[C@H](CCCCN)NC(=O)[C@@H](NC(=O)[C@H](C)N)[C@@H](C)O)C(=O)N[C@@H](Cc1ccccc1)C(=O)N[C@H](C(=O)O)C(C)C [3102.0093] (H-ATKNGNIFV-OH) | 3.9
13 | CC(C)[C@H](NC(=O)[C@H](C)NC(=O)[C@H](Cc1ccccc1)NC(=O)[C@H](CO)NC(=O)[C@H](CS)NC(=O)[C@H](CCCNC(=N)N)NC(=O)[C@H](Cc1ccc(O)cc1)NC(=O)[C@@H](N)CCCNC(=N)N)C(=O)N[C@@H](C)C(=O)O [3102.0102] (H-RYRCSFAVA-OH) | 0.0038
14 | CC[C@H](C)[C@H](NC(=O)[C@H](CC(C)C)NC(=O)[C@H](CCCNC(=N)N)NC(=O)[C@H](CCC(N)=O)NC(=O)[C@H](CCCNC(=N)N)NC(=O)[C@H](Cc1ccc(O)cc1)NC(=O)[C@@H](N)CCCNC(=N)N)C(=O)N[C@@H](CO)C(=O)N[C@@H](CC(C)C)C(=O)O [3102.0110] (H-RYRQRLISL-OH) | 5.2
15 | C[C@@H](O)[C@H](N)C(=O)N[C@@H](Cc1ccccc1)C(=O)N[C@@H](CCCNC(=N)N)C(=O)N[C@@H](CCC(=O)O)C(=O)N[C@@H](CCCNC(=N)N)C(=O)N[C@@H](Cc1ccc(O)cc1)C(=O)N[C@@H](CO)C(=O)N[C@@H](Cc1ccc(O)cc1)C(=O)N[C@@H](CCCCN)C(=O)O [3102.0221] (H-TFRERYSYK-OH) | 0.89
16 | CC(C)C[C@H](NC(=O)[C@H](Cc1c[nH]cn1)NC(=O)[C@H](CC(N)=O)NC(=O)[C@H](CC(N)=O)NC(=O)[C@H](CCCNC(=N)N)NC(=O)[C@H](CO)NC(=O)[C@@H](N)[C@@H](C)O)C(=O)N1CCC[C@H]1C(=O)N[C@@H](C)C(=O)O [3102.0126] (H-TSRNNHLPA-OH) | 15
17 | NCCCC[C@H](NC(=O)[C@H](CS)NC(=O)[C@@H]1CCCN1C(=O)[C@H](CC(N)=O)NC(=O)[C@H](CCC(=O)O)NC(=O)[C@H](Cc1ccc(O)cc1)NC(=O)[C@H](CCCCN)NC(=O)[C@H](Cc1c[nH]c2ccccc12)NC(=O)[C@@H](N)CCCCN)C(=O)O [3102.0113] (H-KWKYENPCK-OH) | 15
18 | CSCC[C@H](NC(=O)[C@H](Cc1ccccc1)NC(=O)[C@H](CCCCN)NC(=O)[C@H](CCCNC(=N)N)NC(=O)[C@H](CO)NC(=O)[C@@H](N)CCSC)C(=O)N[C@@H](CCC(N)=O)C(=O)N[C@H](C(=O)N[C@@H](Cc1ccc(O)cc1)C(=O)O)C(C)C [3102.0264] (H-MSRKFMQVY-OH) | 1.5
19 | CC[C@H](C)[C@H](NC(=O)[C@H](Cc1c[nH]cn1)NC(=O)[C@@H](NC(=O)[C@H](CC(N)=O)NC(=O)[C@H](CCCCN)NC(=O)[C@@H](NC(=O)[C@@H](N)CCCCN)C(C)C)C(C)C)C(=O)NCC(=O)NCC(=O)O [3102.0099] (H-KVKNVHIGG-OH) | 0.34
20 | CC[C@H](C)[C@H](N)C(=O)N[C@H](C(=O)N[C@@H](CCCNC(=N)N)C(=O)N[C@@H](CC(=O)O)C(=O)N[C@@H](CO)C(=O)N[C@@H](CCSC)C(=O)N[C@@H](Cc1c[nH]c2ccccc12)C(=O)N[C@@H](Cc1ccc(O)cc1)C(=O)N[C@H](C(=O)O)[C@@H](C)CC)C(C)C [3102.0125] (H-IVRDSMWYI-OH) | 20
21 | CSCC[C@H](N)C(=O)N[C@@H](CC(C)C)C(=O)N[C@@H](CCCNC(=N)N)C(=O)N[C@H](C(=O)N[C@H](C(=O)N[C@@H](Cc1ccc(O)cc1)C(=O)N[C@@H](CS)C(=O)N[C@@H](CC(N)=O)C(=O)N[C@@H](CCCCN)C(=O)O)C(C)C)[C@@H](C)O [3102.0024] (H-MLRTVYCNK-OH) | 0.26
22 | CC[C@H](C)[C@H](NC(=O)[C@@H](N)CCCCN)C(=O)N[C@@H](CCCCN)C(=O)N[C@@H](CO)C(=O)N[C@@H](CO)C(=O)N[C@@H](CC(N)=O)C(=O)N[C@@H](CO)C(=O)N[C@@H](CO)C(=O)N[C@@H](CCCCN)C(=O)O [3102.0091] (H-KIKSSNSSK-OH) | 15
23 | CC(C)C[C@H](NC(=O)[C@@H]1CCCN1C(=O)[C@H](Cc1c[nH]cn1)NC(=O)[C@@H](NC(=O)[C@H](CS)NC(=O)[C@H](CCCCN)NC(=O)[C@@H](NC(=O)[C@@H](N)CO)C(C)C)[C@@H](C)O)C(=O)N[C@H](C(=O)O)C(C)C [3102.0215] (H-SVKCTHPLV-OH) | 0.97
24 | CSCC[C@H](NC(=O)[C@H](CCCCN)NC(=O)[C@H](CCCCN)NC(=O)[C@H](Cc1ccc(O)cc1)NC(=O)[C@H](CCCNC(=N)N)NC(=O)[C@H](C)NC(=O)[C@@H](N)CCCNC(=N)N)C(=O)N[C@@H](CC(C)C)C(=O)N[C@@H](CCCCN)C(=O)O [3102.0172] (H-RARYKKMLK-OH) | 1
25 | CC[C@H](C)[C@H](NC(=O)[C@H](Cc1ccc(O)cc1)NC(=O)[C@H](CCC(N)=O)NC(=O)[C@H](Cc1ccc(O)cc1)NC(=O)[C@H](CCSC)NC(=O)[C@H](C)NC(=O)[C@H](C)N)C(=O)N[C@@H](Cc1ccccc1)C(=O)N[C@@H](CC(C)C)C(=O)O [3102.1350] (H-AAMYQYIFL-OH) | 7.5
26 | CC(C)[C@H](NC(=O)[C@H](CO)NC(=O)[C@@H]1CCCN1C(=O)[C@H](CO)NC(=O)[C@H](C)NC(=O)[C@H](Cc1ccc(O)cc1)NC(=O)[C@H](Cc1ccccc1)NC(=O)CNC(=O)[C@@H](N)CCCCN)C(=O)O [3102.0070] (H-KGFYASPSV-OH) | 2.7
27 | CC(C)C[C@H](NC(=O)[C@H](CC(=O)O)NC(=O)[C@H](CCCCN)NC(=O)[C@@H](NC(=O)[C@@H](N)CCCCN)C(C)C)C(=O)N[C@@H](Cc1ccccc1)C(=O)N[C@@H](CC(N)=O)C(=O)N[C@H](C(=O)N[C@@H](CCCCN)C(=O)O)[C@@H](C)O [3102.0238] (H-KVKDLFNTK-OH) | 38
28 | CC(C)C[C@H](NC(=O)[C@H](Cc1ccccc1)NC(=O)[C@H](CC(N)=O)NC(=O)[C@H](Cc1ccccc1)NC(=O)[C@@H]1CCCN1C(=O)[C@H](C)NC(=O)[C@H](CC(C)C)NC(=O)[C@@H](NC(=O)[C@@H](N)CCCCN)[C@@H](C)O)C(=O)O [3102.0030] (H-KTLAPFNFL-OH) | 15
29 | CC[C@H](C)[C@H](NC(=O)[C@@H](NC(=O)[C@H](Cc1c[nH]c2ccccc12)NC(=O)[C@H](Cc1ccccc1)NC(=O)CNC(=O)[C@H](CO)NC(=O)[C@H](CCCNC(=N)N)NC(=O)[C@H](Cc1ccc(O)cc1)NC(=O)[C@@H](N)CCCNC(=N)N)[C@@H](C)CC)C(=O)O [3102.0085] (H-RYRSGFWII-OH) | 8.7
